One data set has as its system EV-A71. Also noted: method as in earlier work. The following applies: cited from earlier work.
Data set [1] deals with EV-A71 virus. Kind of data set: Viral RNA reduction assay (qRT-PCR) in RD cells. The format is cell-based, enterovirus A71. The following applies: MOI 0.1, 30 h.p.i.
Another data set has as its system Huh7 cells. Kind of data set: Cytotoxicity, CellTiter-Glo cell viability, Huh7 cells. The class given is cell-based. A general note: Cellular ATP, detected with luciferase, serves as a proxy for viable cell number.
Assay in data set [2]: as above
The format is cell-based. Particulars: human, read-out: half-cytotoxic concentration (CC50).

For the next data set, the system named is CV-B3 Nancy strain. Kind of data set: CPE protection assay, CV-B3. The format is cell-based, Coxsackievirus B3. Particulars: Enterovirus B, CVB3, CV-B3 Nancy, RD.
For data set [3], the system named is EV-A71 virus VP1 protein. Kind of data set: Western blot of VP1. The following applies: RD cells, 24 h; dose-dependent; EIDD-1931 10 to 0.63 μM, EIDD-2801 100 to 6.3 μM. The class given is cell-based, enterovirus A71.
Data set [4] deals with CV-A6 TW-2007-00141 strain. Kind of data set: CPE protection assay, CV-A6. The class given is cell-based, coxsackievirus A6.
Another data set deals with CV-A16 190-D1 strain. Nature of the data set: CPE protection assay, CV-A16. The format is cell-based, coxsackievirus A16. Particulars: Enterovirus A, CVA16, CV-A16 190-D1, RD.
Data set [5] concerns EV-A71 H strain. Kind of data set: CPE protection assay, EV-A71 H strain (CellTiter-Glo). The class given is cell-based. Particulars: Enterovirus A, 100× TCID50, 72 h.p.i., read-out: EC50 against EV-A71 virus.
For data set [6] the following is noted: in vivo, po, 800 mg; cited from earlier work.
The test system of another data set is Vero cells. Nature of the data set: Cytotoxicity, CellTiter-Glo cell viability, Vero cells. The format is cell-based.
Assay in data set [7]: as above
The format is cell-based. Particulars: African green monkey, read-out: half-cytotoxic concentration (CC50).

In data set [8] the test system is EV-A71 virus (H strain). Nature of the data set: Viral RNA loads in tissues of EV-A71-infected suckling mice (qRT-PCR). The following applies: 200 mg/kg i.p. for 4 consecutive days. The format is in vivo. For orientation: In qPCR the cycle at which signal appears reflects the starting amount.
For data set [9], the system named is EV-A71 virus (H strain). Kind of data set: Lethal EV-A71 challenge of 1-day-old ICR suckling mice: survival and body weight. The class given is in vivo.
For another data set, the system named is RD cells. Kind of data set: Cytotoxicity, CellTiter-Glo cell viability, RD cells. The class given is cell-based, Human.
Assay in data set [10]: as above
The class given is cell-based, Human. Particulars: human, read-out: half-cytotoxic concentration (CC50).

Data set [11] deals with EV-A71 virus. Nature of the data set: Virus particle yield in supernatant (TCID50). The class given is cell-based, enterovirus A71. The following applies: RD cells, MOI 0.1, supernatant, 30 h.p.i.
The test system of data set [12] is EV-D68 STL-2014–12 strain. Kind of data set: CPE protection assay, EV-D68. The format is cell-based. The following applies: Enterovirus D, EVD68, EV-D68 STL-2014–12, RD.
Another data set concerns EV-A71 AH08/06 strain. Nature of the data set: CPE protection assay, EV-A71 clinical isolate AH08/06. The class given is cell-based. The following applies: Enterovirus A, EVA71, Huh-7; EV-A71 AH08/06, Huh7.
The subject of data set [13] is EV-A71 virus VP1 protein. Kind of data set: Immunofluorescence assay of VP1. The format is cell-based, enterovirus A71. Particulars: MOI 1, 16 h.p.i.
The test system of data set [14] is EV-A71 H strain. Nature of the data set: Time-of-drug-addition assay (qRT-PCR). The format is cell-based, enterovirus A71. The following applies: RD cells, 10 μM, MOI 0.01, 30 h.p.i.
[15] abbreviates: Enterovirus A, CVA6, CV-A6 TW-2007-00141, RD.
[16] abbreviates: 66.6 mg/kg (66.67 printed for EIDD-2801) i.p. once a day for 7 days, until 21 d.p.i.
[17] abbreviates: 200 mg/kg i.p. once a day for 7 days, observed until 21 d.p.i.

Read-outs that look alike come from different tables or passages of the source.

For `C#C[C@@]1(O)[C@H](O)[C@@H](CO)O[C@H]1n1ccc2c(N)ncnc21` [NITD008, 7-Deaza-2′-C-acetylene-adenosine], in the data set on EV-A71, the anti-EV-A71 activity entry is “potent anti-EV-A71 activity”.
As a reminder, the EC50 is the midpoint of the concentration-response curve. Broadly, the Cmax is the peak of the concentration-time curve. As to `CC(C)C(=O)OC[C@H]1O[C@@H](n2ccc(NO)nc2=O)[C@H](O)[C@@H]1O` [EIDD-2801, molnupiravir], in the data set on EV-A71 virus [1], the “replication of viral RNA (qRT-PCR)” value is “inhibited the replication of viral RNA in a dose-dependent manner”. The “half-cytotoxic concentration (CC50)” value in the data set with Huh7 cells, with Vero cells and in the data set on RD cells was “no significant cytotoxicity” each time. For the same molecule, the CC50 at 72 h in data set [2], in data set [7] and in data set [10] was more than 100 µM each time. Further, the EC50 was 87.2 ± 10.8 µM in the data set with CV-B3 Nancy strain; more than 100 µM in data set [4] (setting [15]); 44.9 ± 4.23 µM in the data set on CV-A16 190-D1 strain; 35.6 ± 0.47 µM in the data set on EV-A71 H strain [5] (EVA71, Huh-7, Huh7 cells); 70.1 ± 4.4 µM with EV-A71 H strain [5] (EVA71, RD cells); 88.5 ± 3.18 µM in the data set on EV-A71 H strain [5] (EVA71, Vero cells). Moreover, the results for the EC50 (in data set [12]; with EV-A71 AH08/06 strain) were 86.2 ± 9.17 µM and 30.3 ± 0.55 µM, respectively. Further, the “expression levels of viral VP1 proteins (Western blot)” value in the data set on EV-A71 virus VP1 protein [3] was “significantly attenuated”. For the same molecule, in data set [6], the Cmax is 16.1 µM. For the same molecule, the “viral RNA loads in brain, heart, intestine, liver, limb muscle and lung” value with EV-A71 virus (H strain) [8] is given as “significantly reduced”. Further, the survival in the data set on EV-A71 virus (H strain) [9] (setting [16]) worked out at 67%; in the data set with EV-A71 virus (H strain) [9] (setting [17]), 100%. Moreover, in the data set on EV-A71 virus [11], the “propagation of infectious viral particles” value was “inhibited”. Further, in the data set with EV-A71 virus VP1 protein [13] (100 µM), the “expression of EV-A71 VP1 protein (immunofluorescence)” value is on record as “partly inhibited”.
In the case of `O=c1[nH]c(=NO)ccn1[C@@H]1O[C@H](CO)[C@@H](O)[C@H]1O` [EIDD-1931, β-D-N^4-hydroxycytidine], in the data set with EV-A71 virus [1], the “replication of viral RNA (qRT-PCR)” value is given as “inhibited the replication of viral RNA in a dose-dependent manner”. Also, the CC50 at 72 h stood at 34.09 ± 0.06 µM in [2], 14.1 ± 0.43 µM in data set [7] and 80.47 ± 0.02 µM in [10]. Also, the “expression levels of viral VP1 proteins (Western blot)” value with EV-A71 virus VP1 protein [3] was “significantly attenuated”. Besides, the EC50 in data set [4] (CV-A6 TW-2007-00141, RD) is 15.7 ± 0.38 µM; in data set [4] (setting [15]), less than 20 µM; in the data set with EV-A71 H strain [5] (EVA71, Huh-7, Huh7 cells), 4.43 ± 0.33 µM; in the data set on EV-A71 H strain [5] (EVA71, RD cells), 5.13 ± 0.56 µM; in the data set with EV-A71 H strain [5] (EVA71, Vero cells), 7.04 ± 0.38 µM; in the data set on EV-A71 AH08/06 strain, 2.79 ± 0.89 µM. In addition, the “viral RNA loads in brain, heart, intestine, liver, limb muscle and lung” value in the data set on EV-A71 virus (H strain) [8] is “significantly reduced”. Further, in the data set on EV-A71 virus (H strain) [9] (22.2 mg/kg i.p. once a day for 7 days, until 21 d.p.i.), the survival protection amounted to 60%. The survival entry in the data set with EV-A71 virus (H strain) [9] (setting [16]) and in the data set on EV-A71 virus (H strain) [9] (setting [17]) was “all survived” in each case. For the same molecule, the body weight result is “good weight maintenance and growth” in the data set on EV-A71 virus (H strain) [9] (66.6 mg/kg i.p. for 7 days, until 21 d.p.i.); “good weight maintenance and growth” in the data set on EV-A71 virus (H strain) [9] (200 mg/kg i.p. for 7 days, until 21 d.p.i.). For the same molecule, the “time within which the mice died” value in the data set on EV-A71 virus (H strain) [9] (low-dose group 7.41 mg/kg i.p. once a day for 7 days) is recorded as not above 12 days. Besides, the “EV-A71 viral RNA production, drug added at stages III and IV (post-entry)” value in the data set on EV-A71 H strain [14] is on record as “inhibited”. Further, the “propagation of infectious viral particles” value in the data set with EV-A71 virus [11] was “inhibited”. Besides, the “expression of EV-A71 VP1 protein (immunofluorescence)” value in the data set on EV-A71 virus VP1 protein [13] (10 µM) is recorded as “almost completely blocked”.

The record behind these values is PMC9227765 (Viruses, 2022).
